Results from patent publication US8772499B2, “TRPV3 modulators” (AbbVie Inc., priority 2011, dated 2014).
Where two headings read alike, the source gives them in different places.

Key:
[1] = In vitro rat microsomal stability assay; type: in vitro ADME, rat (Sprague-Dawley)
Outline: (§1)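 Metabolic stability was followed in NADPH-supplemented incubations at 37° C., using microsomes prepared from human liver or from Sprague-Dawley rat liver.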

human TRPV3 = target: T1, human TRPV3 (Homo sapiens, UniProt Q8NET8); experiment: In vitro antagonism of recombinant human TRPV3 activation (FLIPR Tetra calcium assay); type: cell-based; details: HEK293 cells stably expressing human TRPV3, agonist 2-APB at 80 μM
T1 construct: expressed in transfected cells
T1 sequence (Q8NET8 1-790): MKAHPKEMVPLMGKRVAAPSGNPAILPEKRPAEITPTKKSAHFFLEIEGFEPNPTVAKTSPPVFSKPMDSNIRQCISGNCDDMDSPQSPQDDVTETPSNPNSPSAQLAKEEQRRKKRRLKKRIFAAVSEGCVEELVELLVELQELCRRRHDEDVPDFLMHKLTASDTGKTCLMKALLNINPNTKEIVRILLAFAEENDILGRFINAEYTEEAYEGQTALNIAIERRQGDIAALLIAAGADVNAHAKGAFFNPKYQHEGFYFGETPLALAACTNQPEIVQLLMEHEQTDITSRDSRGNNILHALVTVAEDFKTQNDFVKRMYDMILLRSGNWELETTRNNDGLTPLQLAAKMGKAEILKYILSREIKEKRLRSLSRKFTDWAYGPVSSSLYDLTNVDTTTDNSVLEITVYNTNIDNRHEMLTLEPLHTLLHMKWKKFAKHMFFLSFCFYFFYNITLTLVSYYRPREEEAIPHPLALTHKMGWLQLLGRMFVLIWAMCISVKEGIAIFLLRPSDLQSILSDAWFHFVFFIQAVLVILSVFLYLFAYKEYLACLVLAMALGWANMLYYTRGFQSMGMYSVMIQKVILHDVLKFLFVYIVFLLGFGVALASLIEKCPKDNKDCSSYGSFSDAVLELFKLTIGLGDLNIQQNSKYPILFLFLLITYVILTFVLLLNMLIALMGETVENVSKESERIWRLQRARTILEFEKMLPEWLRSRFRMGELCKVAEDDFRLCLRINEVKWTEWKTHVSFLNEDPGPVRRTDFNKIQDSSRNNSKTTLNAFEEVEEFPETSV
Outline: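 Calcium flux read over a 10 min run: compound added at 10 s to Calcium-4-loaded human TRPV3-HEK293 cells, agonist 2-APB (80 μM, its EC80) after 3 min. IC50 derived from peak-minus-baseline signal as percentage of uninhibited 2-APB response, typically averaged over at least two runs.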

[2] = In vitro human microsomal stability assay; type: in vitro ADME
Outline: as §1

[3] = Sprague-Dawley, rat, microsomes, 0.5 h, 0.5 μM, pH 7.4
[4] = actual measured value shown parenthetically, in most cases average of at least two runs, read-out: IC50
[5] = human, microsomes, 0.5 h, 0.5 μM, pH 7.4
[6] = reported range, read-out: IC50 (range class)
[7] = rat liver microsomes (Sprague-Dawley), 0.5 μM substrate, 0.25 mg/mL microsomal protein, pH 7.4, 37° C., NADPH, 30 minutes
[8] = human liver microsomes, 0.5 μM substrate, 0.25 mg/mL microsomal protein, pH 7.4, 37° C., NADPH, 30 minutes

Structure (SMILES)	RAT MICROSOMAL STABILITY (% REMAINING AFTER 30 MINUTES) [1, 3]	IC50 (human TRPV3; [4])	HUMAN MICROSOMAL STABILITY (% REMAINING AFTER 30 MINUTES) [2, 5]	IC50 (human TRPV3; [6])	RAT […] (% REMAINING AFTER 30 MINUTES) [1, 7]	HUMAN […] (% REMAINING AFTER 30 MINUTES) [2, 8]	RAT MICROSOMAL STABILITY (% REMAINING AFTER 30 MINUTES) [1, 7]	HUMAN MICROSOMAL STABILITY (% REMAINING AFTER 30 MINUTES) [2, 8]
NC1CCCC1C(O)C1(c2ccc(C(F)(F)F)cc2)CCC1 (centres unmarked) [Example 205, (2-aminocyclopentyl) {1-[4-(trifluoromethyl)phenyl]cyclobutyl}methanol]	>85%	3.87 µM	>85%	–	–	–	–	–
OC(C1CCCc2cccnc21)C1(c2cccc(OC(F)(F)F)c2)CCC1 (stereo not drawn) [Example 187, (anti)-5,6,7,8-tetrahydroquinolin-8-yl{1-[3-(trifluoromethoxy)phenyl]-cyclobutyl}methanol]	<0.01%	> 20 µM	<0.01%	> 20 µM	–	–	–	–
O[C@H](c1ccccn1)C1(c2ccc(C(F)(F)F)cc2F)CCC1 [Example 27, (S)-{1-[2-fluoro-4-(trifluoromethyl)phenyl]cyclobutyl}(pyridin-2-yl)-methanol]	15%	1.4 µM	13%	–	–	–	–	–
Nc1cccnc1C(O)C1(c2ccc(Cl)c(Cl)c2)CCC1 (centres unmarked) [Example 130, (3-aminopyridin-2-yl)[1-(3,4-dichlorophenyl)cyclobutyl]methanol]	<0.01%	3.11 µM	4.0%	–	–	–	–	–
O=C1CC(c2cccc(OC(F)(F)F)c2)([C@H](O)c2ccccn2)C1 (single isomer, unassigned) [Example 256]	55%	2.24 µM	44%	–	–	–	–	–
O[C@H](c1ccccn1)[C@]1(c2cccc(C(F)(F)F)c2)C[C@H](O)C1 [Example 259, cis-3-[(S)-hydroxy(pyridin-2-yl)methyl]-3-[3-(trifluoromethyl)phenyl]-cyclobutanol]	73%	0.47 µM	76%	–	–	–	–	–
O[C@H](c1ccccn1)C1(c2ccc(Cl)c(Cl)c2)CCC1 [Example 26, (S)-[1-(3,4-dichlorophenyl)cyclobutyl](pyridin-2-yl)methanol]	1.0%	0.31 µM	6.3%	–	–	–	–	–
OC(C1CCc2cccnc21)C1(c2cccc(C(F)(F)F)c2)CCC1 (stereo not drawn) [Example 185, (anti)-6,7-dihydro-5H-cyclopenta[b]pyridin-7-yl{1-[3-(trifluoromethyl)-phenyl]cyclobutyl}methanol]	–	> 20 µM	–	> 20 µM	<0.01%	0.39%	–	–
OC(c1ccccn1)C1(c2cccc(OC(F)(F)F)c2)CCNCC1 (centres unmarked) [Example 148, pyridin-2-yl{4-[3-(trifluoromethoxy)phenyl]piperidin-4-yl}methanol]	–	3.1 µM	–	–	–	–	53%	>85%
OC(C1CCCc2cccnc21)C1(c2ccccc2OC(F)(F)F)CCC1 (stereo not drawn) [Example 192, (syn)-5,6,7,8-tetrahydroquinolin-8-yl{1-[2-(trifluoromethoxy)phenyl]-cyclobutyl}methanol]	<0.01%	> 20 µM	<0.01%	> 20 µM	–	–	–	–
OC(c1ccccn1)C1(C2CCOC2)CCC1 (centres unmarked) [Example 284, pyridin-2-yl[1-(tetrahydrofuran-3-yl)cyclobutyl]methanol]	16%	> 20 µM	>85%	> 20 µM	–	–	–	–
N[C@@H]1CCC[C@H]1[C@@H](O)C1(c2ccc(Cl)cc2)CCC1 [Example 224, (R)-[(1R,2R)-2-aminocyclopentyl][1-(4-chlorophenyl)cyclobutyl]methanol]	70%	4.84 µM	>85%	–	–	–	–	–
OC(c1ccccn1)C1(c2ccc(OC(F)(F)F)cc2)CCCO1 (single isomer, unassigned) [Example 94, (anti)-pyridin-2-yl{2-[4-(trifluoromethoxy)phenyl]tetrahydrofuran-2-yl}methanol]	3.8%	0.36 µM	55%	–	–	–	–	–
OC(c1ccccn1)C1(c2cccc(OC(F)(F)F)c2)CCC1 (centres unmarked) [Example 11, pyridin-2-yl{1-[3-(trifluoromethoxy)phenyl]cyclobutyl}methanol]	0.80%	0.4 µM	0.72%	–	–	–	–	–
OC(c1ccccn1)C1(c2cccc(OC(F)(F)F)c2)CCOCC1 (centres unmarked) [Example 66, pyridin-2-yl{4-[3-(trifluoromethoxy)phenyl]tetrahydro-2H-pyran-4-yl}-methanol]	23%	1.52 µM	31%	–	–	–	–	–
CC1(O)CC(c2ccc(C(F)(F)F)cc2)(C(O)c2ccccn2)C1 (single isomer, unassigned) [Example 233]	67%	10.8 µM	>85%	–	–	–	–	–
OC1CC(c2cc(C(F)(F)F)ccn2)([C@H](O)c2ccccn2)C1 (stereo partly drawn) [Example 294, 3-[(S)-hydroxy(pyridin-2-yl)methyl]-3-[4-(trifluoromethyl)pyridin-2-yl]-cyclobutanol]	>85%	> 20 µM	>85%	> 20 µM	–	–	–	–
CC1(O)CC(c2cccc(C(F)(F)F)c2)(C(O)c2ccccn2)C1 (single isomer, unassigned) [Example 244]	77%	3.6 µM	80%	–	–	–	–	–
OC(c1ccccn1)C1(c2cccc(Cl)c2)CCCO1 (single isomer, unassigned) [Example 105, (syn)-[2-(3-chlorophenyl)tetrahydrofuran-2-yl](pyridin-2-yl)methanol]	0.040%	7.57 µM	42%	–	–	–	–	–
O[C@@H](c1ncccn1)C1(c2ccc(C(F)(F)F)cc2)CCC1 [Example 42, (R)-pyrimidin-2-yl{1-[4-(trifluoromethyl)phenyl]cyclobutyl}methanol]	40%	> 10 µM	50%	–	–	–	–	–
OC(CC1(c2ccc(C(F)(F)F)cc2)CCC1)c1ccccn1 (centres unmarked) [Example 75, 1-(pyridin-2-yl)-2-{1-[4-(trifluoromethyl)phenyl]cyclobutyl}ethanol]	0.74%	0.94 µM	44%	–	–	–	–	–
COC1(OC)CC(c2ccc(OC(F)(F)F)cc2)(C(O)c2ccccn2)C1 (centres unmarked) [Example 129, {3,3-dimethoxy-1-[4-(trifluoromethoxy)phenyl]cyclobutyl}(pyridin-2-yl)-methanol]	0.01%	0.33 µM	46%	–	–	–	–	–
